Laboratory results: US12459974B2, “Bicyclic peptide ligands specific for Nectin-4” (priority 2018, dated 2025)
Like-named read-outs stand apart in the source and are kept apart here. *1 amine or outer side, *2 acyl side, *3 side chain or, on linkers, in order; H or OH if unused. Where a SMILES comes first, the peptide text is derived from it. Bridges are numbered along the chain shown (N, C = ends). Roman numbers before positions name the chains, in order. [ ]: non-standard residue; d: D form. The star is where a group is joined. ξ: configuration not given here. TATA = O=C(CC[*:1])N1CN(C(=O)CC[*:2])CN(C(=O)CC[*:3])C1; Dolaproine = CO[C@@H]([C@@H]1CCCN1)[C@@H](C)C(=O)O; X1 = CC[C@H](C)C(C(CC(=O)[*:2])OC)N(C)[*:1]; 1Nal = N[C@@H](Cc1cccc2ccccc12)C(=O)O; X3 = O=C(CCCC(=O)[*:2])NCCC(=O)[*:1]; PABC = O=C(OCc1ccc(N[*:1])cc1)[*:2]; Hyp = O=C(O)[C@@H]1C[C@@H](O)CN1; hArg = N=C(N)NCCCC[C@H](N)C(=O)O; Cit = NC(=O)NCCC[C@H](N)C(=O)O; X2 = CC(N*)[C@@H](O)c1ccccc1; ξNMeV = CNC(C(=O)O)C(C)C; ξV = CC(C)C(N)C(=O)O; Sar = CNCC(=O)O

How the values were obtained:
MDA-MB-468 xenograft = assay: Example 9.4: in vivo efficacy in MDA-MB-468 xenograft in Balb/c nude mice; details: for TGI / Tumor volume (TV) / T/C: day 21; for T/C: treated/control group average tumor volume; for Tumor volume trace over time (Day 23 to day 42): dosing suspended from day 21
Method: (§1) The major endpoint was to see if the tumor growth could be delayed or mice could be cured. Tumor volume was measured three times weekly in two dimensions using a caliper, and the volume was expressed in mm^3 using the formula: V=0.5 a×b^2 where a and b are the long and short diameters of the tumor, respectively. The tumor size was then used for calculations of T/C value. The T/C value (in percent) is an indication of antitumor effectiveness; T and C are the mean volumes of the treated and control groups, respectively, on a given day. TGI was calculated for each group using the formula: TGI (%)=[1−(Ti−T0)/(Vi−V0)]×100; Ti is the average tumor volume of a treatment group on a given day, T0 is the average tumor volume of the treatment group on the day of treatment start, Vi is the average tumor volume of the vehicle control group on the same day with Ti, and V0 is the average tumor volume of the vehicle group on the day of treatment start.
(§2) A one-way ANOVA was performed to compare tumor volume among groups, and when a significant F-statistics (a ratio of treatment variance to the error variance) was obtained, comparisons between groups were carried out with Games-Howell test. All data were analyzed using GraphPad Prism 5.0. P<0.05 was considered to be statistically significant.
(§3) • Species: Mus Musculus • Strain: Balb/c nude • Age: 6-8 weeks • Sex: female • Body weight: 18-22 g • Number of animals: 41 mice plus spare 3.1.2.
The tumor cells were maintained in Leibovitz's L-15 medium supplemented with 10% heat inactivated fetal bovine serum at 37° C. in an atmosphere of 5% CO2 in air. The tumor cells were routinely subcultured twice weekly. The cells growing in an exponential growth phase were harvested and counted for tumor inoculation.
41 animals were randomized when the average tumor volume reached 196 mm^3.

NCI-H292 xenograft = assay: Example 9.5: in vivo efficacy in NCI-H292 xenograft in Balb/c nude mice; parameters: species or system Mus Musculus
MDA-MB-468 cell line = assay: Example 11: HCS assay, Nectin-4 BDC binding study; type: cell-based
Method: HCS assay was used in Nectin-4 BDC binding study. Cells were incubated with test agent and then washed. Detection was by a fluorescent antibody to MMAE.

Panc2.13 xenograft = assay: Example 9.7: in vivo efficacy in Panc2.13 xenograft in Balb/c nude mice; details: for TGI / Tumor volume (TV): day 14; for Tumor volume: 3 mpk, biw, iv
Method: as §1, §2, §3
The Panc2.13 tumor cells will be maintained in RMPI1640 medium supplemented with 15% heat inactivated fetal bovine serum and 10 units/ml human recombinant insulin at 37° C. in an atmosphere of 5% CO2 in air. The tumor cells will be routinely subcultured twice weekly. The cells growing in an exponential growth phase will be harvested and counted for tumor inoculation.
Each mouse was inoculated subcutaneously at the right flank with Panc2.13 tumor cells (5×10^6 with Matrigel (1:1) in 0.2 ml of PBS for tumor development. 41 animals were randomized when the average tumor volume reached 149 mm^3. The test article administration and the animal numbers in each group were shown in the experimental design table.
Tumor growth inhibition rate for Test articles in the Panc2.13 xenograft model was calculated based on tumor volume measurements at day 14 after the start of treatment.

SMILES: CC[C@H](C)C(C(CC(=O)N1CCC[C@H]1[C@H](OC)[C@@H](C)C(=O)NC(C)[C@@H](O)c1ccccc1)OC)N(C)C(=O)[C@@H](NC(=O)C(C(C)C)N(C)C(=O)OCc1ccc(NC(=O)[C@H](CCCNC(N)=O)NC(=O)C(NC(=O)CCCC(=O)NCCC(=O)N(C)CC(=O)N(C)CC(=O)N(C)CC(=O)N(C)CC(=O)N(C)CC(=O)N(C)CC(=O)N(C)CC(=O)N(C)CC(=O)N(C)CC(=O)N(C)CC(=O)N[C@H]2CSCCC(=O)N3CN4CN(C3)C(=O)CCSC[C@H](NC(=O)[C@@H](CC(=O)O)NC(=O)[C@H](Cc3cccc5ccccc35)NC(=O)[C@@H]3CCCN3C2=O)C(=O)N[C@@H](CCSC)C(=O)N[C@@H](CCCCNC(=N)N)C(=O)N[C@@H](CC(=O)O)C(=O)N[C@@H](Cc2c[nH]c3ccccc23)C(=O)N[C@@H](CO)C(=O)N[C@@H]([C@@H](C)O)C(=O)N2CCC[C@H]2C(=O)N2C[C@H](O)C[C@H]2C(=O)N[C@@H](Cc2c[nH]c3ccccc23)C(=O)N[C@H](C(N)=O)CSCCC4=O)C(C)C)cc1)C(C)C (stereo partly drawn) [BCY8245, MMAE-PABC-Cit-Val-Glutaryl-BCY8234] (I: [Sar][Sar][Sar][Sar][Sar][Sar][Sar][Sar][Sar][Sar]CP[1Nal][dD]CM[hArg]DWSTP[Hyp]WC-NH2 / II: [ξV][Cit][PABC][ξNMeV]V[X1][Dolaproine]-X2; linker I:11-I:15-I:25 via TATA; linker I:N-II:N via X3)
- TGI (MDA-MB-468 xenograft; 3 mg/kg biw): 169.8%
- Tumor volume (TV) (MDA-MB-468 xenograft; 3 mg/kg biw): 22 mm^3
- TGI (MDA-MB-468 xenograft; 3 mg/kg qw): 144.2%
- Tumor volume (TV) (MDA-MB-468 xenograft; 3 mg/kg qw): 85 mm^3
- TGI (MDA-MB-468 xenograft; 5 mg/kg qw): 168.4%
- Tumor volume (TV) (MDA-MB-468 xenograft; 5 mg/kg qw): 29 mm^3
- TGI (MDA-MB-468 xenograft; 3 mpk, biw, iv): 169.8%
- T/C (MDA-MB-468 xenograft; 3 mpk, biw, iv): 4.9%
- TGI (MDA-MB-468 xenograft; 3 mpk, qw, iv): 144.2%
- T/C (MDA-MB-468 xenograft; 3 mpk, qw, iv): 18.9%
- Tumor volume trace over time (Day 23 to day 42) (MDA-MB-468 xenograft; 5 mpk, qw, iv, day 23 after the start of treatment): 35 ± 5 mm^3
- Tumor volume trace over time (Day 23 to day 42) (MDA-MB-468 xenograft; 5 mpk, qw, iv, day 25 after the start of treatment): 48 ± 5 mm^3
- Tumor volume trace over time (Day 23 to day 42) (MDA-MB-468 xenograft; 5 mpk, qw, iv, day 28 after the start of treatment): 37 ± 7 mm^3
- Tumor volume trace over time (Day 23 to day 42) (MDA-MB-468 xenograft; 5 mpk, qw, iv, day 32 after the start of treatment): 28 ± 6 mm^3
- Tumor volume trace over time (Day 23 to day 42) (MDA-MB-468 xenograft; 5 mpk, qw, iv, day 35 after the start of treatment): 24 ± 4 mm^3
- Tumor volume trace over time (Day 23 to day 42) (MDA-MB-468 xenograft; 5 mpk, qw, iv, day 39 after the start of treatment): 28 ± 6 mm^3
- Tumor volume trace over time (Day 23 to day 42) (MDA-MB-468 xenograft; 5 mpk, qw, iv, day 42 after the start of treatment): 26 ± 6 mm^3
- TGI (MDA-MB-468 xenograft; 5 mpk, qw, iv): 168.4%
- T/C (MDA-MB-468 xenograft; 5 mpk, qw, iv): 6.6%
- tumor response (in words) (MDA-MB-468 xenograft; mouse, in vivo): causes regression of the tumor
- TGI (NCI-H292 xenograft; 3 mg/kg biw, day 14): 112.2%
- Tumor volume (TV) (NCI-H292 xenograft; 3 mg/kg biw, day 14): 65 mm^3
- TGI (NCI-H292 xenograft; 3 mg/kg qw, day 14): 101.4%
- Tumor volume (TV) (NCI-H292 xenograft; 3 mg/kg qw, day 14): 149 mm^3
- TGI (NCI-H292 xenograft; 5 mg/kg qw, day 14): 109.8%
- Tumor volume (TV) (NCI-H292 xenograft; 5 mg/kg qw, day 14): 83 mm^3
- Tumor volume (NCI-H292 xenograft; 3 mpk, biw, day 0 after the start of treatment): 162 mm^3
- Tumor volume (NCI-H292 xenograft; 3 mpk, biw, day 2): 243 mm^3
- Tumor volume (NCI-H292 xenograft; 3 mpk, biw, day 4): 211 mm^3
- Tumor volume (NCI-H292 xenograft; 3 mpk, biw, day 7): 101 mm^3
- Tumor volume (NCI-H292 xenograft; 3 mpk, biw, day 9): 100 mm^3
- Tumor volume (NCI-H292 xenograft; 3 mpk, biw, day 11): 87 mm^3
- T/C (NCI-H292 xenograft; 3 mpk, biw, day 14): 6.9%
- TGI (NCI-H292 xenograft; 3 mpk, biw, day 14): 112.2%
- Tumor Volume (Mean ± SEM) (NCI-H292 xenograft; 3 mpk, biw, day 14): 65 ± 3 mm^3
- Tumor volume (NCI-H292 xenograft; 3 mpk, biw, day 14): 65 mm^3
- Tumor volume (NCI-H292 xenograft; 3 mpk, qw, day 0 after the start of treatment): 160 mm^3
- Tumor volume (NCI-H292 xenograft; 3 mpk, qw, day 2): 220 mm^3
- Tumor volume (NCI-H292 xenograft; 3 mpk, qw, day 4): 266 mm^3
- Tumor volume (NCI-H292 xenograft; 3 mpk, qw, day 7): 218 mm^3
- Tumor volume (NCI-H292 xenograft; 3 mpk, qw, day 9): 167 mm^3
- Tumor volume (NCI-H292 xenograft; 3 mpk, qw, day 11): 161 mm^3
- T/C (NCI-H292 xenograft; 3 mpk, qw, day 14): 15.8%
- TGI (NCI-H292 xenograft; 3 mpk, qw, day 14): 101.4%
- Tumor Volume (Mean ± SEM) (NCI-H292 xenograft; 3 mpk, qw, day 14): 149 ± 43 mm^3
- Tumor volume (NCI-H292 xenograft; 3 mpk, qw, day 14): 149 mm^3
- Tumor volume (NCI-H292 xenograft; 5 mpk, qw, day 0 after the start of treatment): 160 mm^3
- Tumor volume (NCI-H292 xenograft; 5 mpk, qw, day 2): 176 mm^3
- Tumor volume (NCI-H292 xenograft; 5 mpk, qw, day 4): 191 mm^3
- Tumor volume (NCI-H292 xenograft; 5 mpk, qw, day 7): 105 mm^3
- Tumor volume (NCI-H292 xenograft; 5 mpk, qw, day 9): 82 mm^3
- Tumor volume (NCI-H292 xenograft; 5 mpk, qw, day 11): 91 mm^3
- T/C (NCI-H292 xenograft; 5 mpk, qw, day 14): 8.8%
- TGI (NCI-H292 xenograft; 5 mpk, qw, day 14): 109.8%
- Tumor Volume (Mean ± SEM) (NCI-H292 xenograft; 5 mpk, qw, day 14): 83 ± 8 mm^3
- Tumor volume (NCI-H292 xenograft; 5 mpk, qw, day 14): 83 mm^3
- tumor response (in words) (NCI-H292 xenograft; mouse, in vivo): causes regression of the tumor
- Bmax (in words) (MDA-MB-468 cell line): lower than for the Nectin-4 ADC
- binding affinity on MDA-MB-468 cell line (in words) (MDA-MB-468 cell line): single digit nanomolar affinity
- Max fluorescent intensity (MDA-MB-468 cell line; MDA-MB-468 cell line, fluorescent antibody to MMAE): 13.34
- Kd (MDA-MB-468 cell line; MDA-MB-468 cell line, historical data, read-out: Historical Kd): 5.18 nM
- Kd (MDA-MB-468 cell line; MDA-MB-468 cell line, read-out: Kd): 3.52 nM
- retention on the cells (in words) (MDA-MB-468 cell line; detection by a fluorescent antibody to MMAE): retained on the cells
- TGI (Panc2.13 xenograft; 3 mg/kg biw): 79.1%
- Tumor volume (TV) (Panc2.13 xenograft; 3 mg/kg biw): 231 mm^3
- TGI (Panc2.13 xenograft; 3 mg/kg qw): 69.2%
- Tumor volume (TV) (Panc2.13 xenograft; 3 mg/kg qw): 271 mm^3
- TGI (Panc2.13 xenograft; 5 mg/kg qw): 77.5%
- Tumor volume (TV) (Panc2.13 xenograft; 5 mg/kg qw): 238 mm^3
- Tumor volume (Panc2.13 xenograft; day 0 after the start of treatment): 148 mm^3
- Tumor volume (Panc2.13 xenograft; day 2): 170 mm^3
- Tumor volume (Panc2.13 xenograft; day 4): 204 mm^3
- Tumor volume (Panc2.13 xenograft; day 7): 216 mm^3
- Tumor volume (Panc2.13 xenograft; day 9): 236 mm^3
